The target of data set [1] is T1, PD-L1 protein on the surface of MC38-hPDL1 tumor cells (Homo sapiens, UniProt Q9NZQ7).
T1 construct: expressed in transfected cells; host or cells: MC38-hPDL1 (mouse colon cancer cells)
In words: Induction of endocytosis of PD-L1 on the surface of tumor cells (flow cytometry). It is filed as cell-based. The following applies: 16 hours incubation; for Emax: MC38-hPDL1 cells, read-out: MC38 maximum endocytosis rate; for IC50: inducing endocytosis of PD-L1, MC38-hPDL1 cells, read-out: MC38 IC50. The method, boiled down:
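MC38-hPDL1 mouse colon cancer cells overexpressing human PD-L1 were exposed to compound dilutions for 16 h at 37 °C. Surface PD-L1 was then stained with PE anti-human CD274 for 30 min at room temperature and measured by flow cytometry. Endocytosis rate versus concentration was fitted by nonlinear regression to give IC50.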

Data set [2] can be described thus: Pharmacokinetics test in Balb/C mice. The settings on record: male, mouse, po, p.o. 5 mg/kg, plasma; for MRT inf: read-out: Average residence time MRT0−∞; for AUC(0-t): read-out: Curve area AUC0−t; for Cmax: read-out: Drug concentration in plasma Cmax; for half-life: read-out: Half life t1/2 (converted); for Tmax: read-out: Peak time tmax. The data set is classed as in vivo. As to the method: Test Embodiment 6. Pharmacokinetics Test in Balb/C Mice
Taking Balb/C mice as the test animals, the pharmacokinetic behavior in the plasma of mice of the following compound embodiments was studied when orally administered at a dose of 5 mg/kg.
Balb/C Mouse 6/embodiment, male, Shanghai Jisijie Laboratory Animal Co., Ltd., animal production license number (SCXK (Shanghai) 2013-0006 No. 311620400001794).
0.5% HPMC (1% Tween 80), dissolved by sonication, to prepare a clear solution or a homogeneous suspension.
Balb/C mice, male; p.o. after overnight fasting, respectively, at a dose of 5 mg/kg, administered in a volume of 10 mL/kg.
Before and after administration of mice, at 0, 0.5, 1, 2, 4, 6, 8 and 24 hours, 0.1 mL of blood was collected from the orbit, placed in an EDTA-K2 test tube, and centrifuged at 6000 rpm at 4° C. for 6 min to separate the plasma, stored at −80° C.
1) 40 μL of plasma samples were added to 160 μL of acetonitrile for precipitation, mixed and centrifuged at 3500×g for 5 to 20 minutes.
2) 100 μL of the supernatant solution after treatment was taken for LC/MS/MS to analyze the concentration of the compounds to be tested.
2.6 Liquid Phase Analysis • Liquid phase condition: Shimadzu LC-20AD pump • MS conditions: AB Sciex API 4000 Mass Spectrometer • Chromatographic column: phenomenex Gemiu 5 μm C18 50×4.6 mm • Mobile phase: A solution was aqueous 0.1% formic acid solution, B solution was acetonitrile • Flow rate: 0.8 mL/min • Elution time: 0 to 4.0 minutes, the eluent was as follows:
The main parameters of pharmacokinetics were calculated with WinNonlin 8.2, and the results of the mice pharmacokinetic experiments were shown in the following table: […]

The test system of data set [3] is NFAT-luc2/PD1 Jurkat cells. The experiment in a line: In vitro cytotoxicity on NFAT-luc2/PD1 Jurkat cells (CellTiter-Glo). The data set is classed as cell-based. The following applies: 72 hours; for IC50: Homo sapiens, Jurkat. The procedure: (§1) Test Embodiment 5. In Vitro Cytotoxicity of the Compounds of the Present Disclosure on NFAT-Luc2/PD1 Jurkat Cells and MC38-hPDL1 Cells
(§2) Experimental purpose: To test the in vitro cytotoxicity of compounds on NFAT-luc2/PD1 Jurkat cells and MC38-hPDL1 cells.
(§3) When the cells were cultured to an appropriate degree of confluency, the cells were collected, and the cells was adjusted in an appropriate cell concentration by complete medium, then the cell suspension was plated in a 96-well plate, 90 μL per well, and put in a 37° C., 5% CO2 incubator overnight; compound solutions of different concentrations were prepared by DMSO and medium, and a vehicle control was set; compound solutions were added to a 96-well plate, 10 μL per well, and put in a 37° C., 5% CO2 incubator and cultured for 72 hours. After that, CellTiter-Glo solution was added, the mixture was shaken and mixed evenly, incubated in the dark for 10 minutes, and a BioTek Synergy H1 microplate reader was used for reading.
(§4) Luminescence signal value was used to calculate the inhibition rate, and the concentration and inhibition rate were fitted by nonlinear regression curve using Graphpad Prism software to obtain IC50 values, as shown in the following table: […]

The subject of another data set is MC38-hPDL1 cells. In words: In vitro cytotoxicity on MC38-hPDL1 cells (CellTiter-Glo). The data set is classed as cell-based, mouse. The settings on record: for MC38-hPDL1 inhibition rate (%): 72 hours; for IC50: Mus musculus, MC38-hPD-L1, 72 hours. As to the method: as §1, §2, §3, §4
In general terms: Cellular ATP, detected with luciferase, serves as a proxy for viable cell number.

Each structure is given as a SMILES string.

What is called IC50 is the concentration that inhibits the measured activity by half. By Tmax is commonly meant the time from dosing to the highest level.

T1 sequence (Q9NZQ7 19-290): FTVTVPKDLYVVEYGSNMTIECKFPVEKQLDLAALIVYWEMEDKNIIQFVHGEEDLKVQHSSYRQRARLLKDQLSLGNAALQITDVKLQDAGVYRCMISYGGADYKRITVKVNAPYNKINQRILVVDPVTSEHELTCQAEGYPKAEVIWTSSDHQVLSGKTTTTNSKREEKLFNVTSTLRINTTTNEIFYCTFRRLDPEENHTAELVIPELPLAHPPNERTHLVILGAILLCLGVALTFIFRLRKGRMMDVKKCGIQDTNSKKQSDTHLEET

With `CNC(=O)CNCc1cnc(C(=O)Nc2cccc(-c3cccc(NC(=O)c4nc5c(n4C)CCN(C)C5)c3Cl)c2C)cc1OC` [Embodiment 95, N-(2-Chloro-3′-(4-methoxy-5-(((2-(methylamino)-2-carbonylethyl)amino)methyl)picolinamido)-2′-methyl-[1,1′-biphenyl]-3-yl)-1,5-dimethyl-4,5,6,7-tetrahydro-1H-imidazo[4,5-c]pyridine-2-carboxamide], in data set [1], the Emax is 94% and the half-inhibitory concentration (IC50) is 2.3 nM.

Consider `COc1nc(-c2cccc(-c3cccc(NC(=O)c4nc5c(n4C)CCN(C)C5)c3Cl)c2Cl)ccc1CN1CC(F)C1` [Embodiment 120, N-(2,2′-Dichloro-3′-(5-((3-fluoroazetidin-1-yl)methyl)-6-methoxypyridin-2-yl)-[1,1′-biphenyl]-3-yl)-1,5-dimethyl-4,5,6,7-tetrahydro-1H-imidazo[4,5-c]pyridine-2-carboxamide], for which, in data set [1], the Emax is 95% and the IC50 was determined as 1.2 nM. For the same compound, in data set [2], the MRT inf was determined as 17 h, the AUC(0-t) was found to be 500 ng·h/mL, the Cmax turned out to be 34 ng/mL and the half-life was 12 h. Further, the Tmax in data set [2] was 2 h.

Take `COc1nc(-c2cccc(-c3cccc(NC(=O)c4nc5c(n4C)CCN(C)C5)c3Cl)c2Cl)ccc1CN1CC2(CCC(=O)N2)C1` [Embodiment 126, N-(2,2′-Dichloro-3′-(6-methoxy-5-((6-carbonyl-2,5-diazaspiro[3.4]octan-2-yl)methyl)pyridin-2-yl)-[1,1′-biphenyl]-3-yl)-1,5-dimethyl-4,5,6,7-tetrahydro-1H-imidazo[4,5-c]pyridine-2-carboxamide]: in data set [1], the Emax is 97% and the IC50 was determined as 1 nM. In data set [2], the MRT inf came to 12.3 h, the AUC(0-t) turned out to be 677 ng·h/mL, the Cmax was found to be 54 ng/mL and the half-life is 8.4 h. Besides, the Tmax in data set [2] came to 2 h.

With `COc1nc(-c2cccc(-c3cccc(NC(=O)c4nc5c(n4C)CCN(C)C5)c3Cl)c2Cl)ccc1CNC[C@H](C)O` [Embodiment 127, (S)—N-(2,2′-Dichloro-3′-(5-(((2-hydroxypropyl)amino)methyl)-6-methoxypyridin-2-yl)-[1,1′-biphenyl]-3-yl)-1,5-dimethyl-4,5,6,7-tetrahydro-1H-imidazo[4,5-c]pyridine-2-carboxamide], in data set [1], the Emax is 97% and the IC50 is 0.7 nM. For the same compound, in data set [2], the MRT inf is 69 h, the AUC(0-t) worked out at 743 ng·h/mL, the Cmax is 37 ng/mL and the half-life is 47 h. For the same compound, in data set [2], the Tmax came out at 6 h.

As for `COc1nc(-c2cccc(-c3cccc(NC(=O)c4nc5c(n4C)CCN(C)C5)c3Cl)c2Cl)ccc1CN1CC(O)(CO)C1` [Embodiment 173, N-(2,2′-Dichloro-3′-(5-((3-hydroxy-3-(hydroxymethyl)azetidin-1-yl)methyl)-6-methoxypyridin-2-yl)-[1,1-biphenyl]-3-yl)-1,5-dimethyl-4,5,6,7-tetrahydro-1H-imidazo[4,5-c]pyridine-2-carboxamide], in data set [1], the Emax is 97% and the IC50 is 0.9 nM.

For the compound `COc1nc(-c2cccc(-c3cccc(NC(=O)c4nc5c(n4C)CCN(C)C5)c3Cl)c2Cl)ccc1CNC(CO)CO` [Embodiment 174, N-(2,2′-Dichloro-3′-(5-(((1,3-dihydroxypropan-2-yl)amino)methyl)-6-methoxypyridin-2-yl)-[1,1′-biphenyl]-3-yl)-1,5-dimethyl-4,5,6,7-tetrahydro-1H-imidazo[4,5-c]pyridine-2-carboxamide], in data set [1], the Emax was determined as 97% and the IC50 amounted to 1 nM.

As for `COc1nc(-c2cccc(-c3cccc(NC(=O)c4nc5c(n4C)CCN(C)C5)c3Cl)c2Cl)ccc1CN1CC(C(=O)N(C)C)C1` [Embodiment 183, N-(2,2′-Dichloro-3′-(5-((3-(dimethylcarbamoyl)azetidin-1-yl)methyl)-6-methoxypyridin-2-yl)-[1,1′-biphenyl]-3-yl)-1,5-dimethyl-4,5,6,7-tetrahydro-1H-imidazo[4,5-c]pyridine-2-carboxamide], in data set [3], the “Jurkat-PD1 inhibition rate (%)” value came to 71% and the IC50 was determined as 5820 nM. In data set [1], the Emax is 95%. Also, in the data set with MC38-hPDL1 cells, the “MC38-hPDL1 inhibition rate (%)” value worked out at 14% and the IC50 is > 10000 nM. Moreover, in data set [2], the MRT inf worked out at 16.8 h, the AUC(0-t) stood at 1190 ng·h/mL, the Cmax stood at 75 ng/mL and the half-life is 10.9 h. In addition, the Tmax in data set [2] turned out to be 6 h.

Take `COc1nc(-c2cccc(-c3cccc(NC(=O)c4nc5c(n4C)CCN(C)C5)c3Cl)c2Cl)ccc1CN1CC2(C1)CN(S(C)(=O)=O)C2` [Embodiment 192]: in data set [1], the Emax was found to be 97% and the IC50 was 0.3 nM.

Take `COc1nc(-c2cccc(-c3cccc(NC(=O)c4nc5c(n4C)CCN(C)C5)c3Cl)c2Cl)cnc1CN1CC(NC(C)=O)C1` [Embodiment 218, N-(3′-(5-((3-Acetylaminoazetidin-1-yl)methyl)-6-methoxypyrazin-2-yl)-2,2′-dichloro-[1,1′-biphenyl]-3-yl)-1,5-dimethyl-4,5,6,7-tetrahydro-1H-imidazo[4,5-c]pyridine-2-carboxamide]: in data set [3], the “Jurkat-PD1 inhibition rate (%)” value stood at 85% and the IC50 worked out at 4320 nM. For the same compound, the Emax in data set [1] is 95%. Also, in the data set on MC38-hPDL1 cells, the “MC38-hPDL1 inhibition rate (%)” value was 51% and the IC50 was found to be 9340 nM.

Regarding `COc1nc(-c2cccc(-c3cccc(NC(=O)c4nc5c(n4C)CCN(C)C5)c3Cl)c2Cl)ncc1CN1CC(CO)C1` [Embodiment 223, N-(2,2′-Dichloro-3′-(5-((3-(hydroxymethyl)azetidin-1-yl)methyl)-4-methoxypyrimidin-2-yl)-[1,1′-biphenyl]-3-yl)-1,5-dimethyl-4,5,6,7-tetrahydro-1H-imidazo[4,5-c]pyridine-2-carboxamide], in data set [3], the “Jurkat-PD1 inhibition rate (%)” value was determined as 77% and the half-maximal inhibitory concentration (IC50) was 4770 nM. For the same compound, the Emax in data set [1] worked out at 94%. Moreover, in the data set with MC38-hPDL1 cells, the “MC38-hPDL1 inhibition rate (%)” value amounted to 2% and the IC50 was > 10000 nM. Further, in data set [2], the MRT inf was found to be 16 h, the AUC(0-t) was 356 ng·h/mL, the Cmax amounted to 24 ng/mL and the half-life is 10.5 h. Besides, the Tmax in data set [2] was 1 h.

With `COc1nc(-c2cccc(-c3cccc(NC(=O)c4nc5c(n4C)CCN(C)C5)c3Cl)c2Cl)ccc1CN1CC2(CC(NC(C)=O)C2)C1` [Embodiment 234, N-(3′-(5-((6-Acetylamino-2-azaspiro[3.3]heptan-2-yl)methyl)-6-methoxypyridin-2-yl)-2,2′-dichloro-[1,1′-biphenyl]-3-yl)-1,5-dimethyl-4,5,6,7-tetrahydro-1H-imidazo[4,5-c]pyridine-2-carboxamide], in data set [1], the Emax stood at 97%. For the same compound, in data set [2], the MRT inf amounted to 20.8 h, the AUC(0-t) is 273 ng·h/mL, the Cmax amounted to 25 ng/mL and the half-life is 14.3 h. Moreover, the Tmax in data set [2] came out at 2 h.

The values are drawn from patent US20230105212A1, “BIPHENYL DERIVATIVE INHIBITOR, PREPARATION METHOD THEREFOR AND USE THEREOF” (SHANGHAI HANSOH BIOMEDICAL CO., LTD., priority 2020, published 2023).
